The values that follow come from US20210177732A1, “COMBINATION OF EXTRACTS OF QUINQUINA AND OF LEONTOPODIUM ALPINUM AND OF THE MANGANESE SALT OF L-PYRROLIDONE CARBOXYLIC ACID IN THE TREATMENT OF ALOPECIA” (PIERRE FABRE DERMO-COSMETIQUE, priority 2018, published 2021).

The test deals with Wnt/β-catenin pathway. The test is described as follows: Activation of the Wnt/β-catenin pathway, TCF/LEF luciferase reporter in dermal papilla cells derived from human hair follicles. The class given is cell-based. The conditions noted are these: human follicular dermal papilla cells, 24 h incubation, Wnt3a 10 nM, Mn-PCA 500 μM, edelweiss 30 μg/mL; for Average RLU (luminescence due to luciferase expression): average of 3 donors (6 experiments), cinchona 10 μg/mL, combination at same concentrations, control 410.2; for activation of the Wnt-β-catenin pathway versus control: combination 10 μg/mL + 500 μM + 30 μg/mL. The procedure:
The aim of this study is to evaluate the effects of the combination of an extract of cinchona, manganese salt of L-pyrrolidone carboxylic acid and an extract of Leontopodium alpinum on the activation of the Wnt/β-catenin pathway on dermal papilla cells derived from human hair follicles.
The studies are carried out on human cells derived from the dermal papillae of the follicles of three donors. The cells are inoculated in 96-well plates and cultured for 24 h with the necessary supplements. The cells are incubated with specific reagents in order to be transfected with a lentivirus (expressing the luciferase gene under the control of the Wnt/β-catenin promoter (TCF/LEF transcriptional response element). The transfected cells are incubated for 24 hours with the products to be tested, i.e. either with an extract of cinchona (10 μg/ml) diluted in DMSO, or with the manganese salt of L-pyrrolidone carboxylic acid (500 μM) diluted in water, or with an extract of Leontopodium alpinum (30 μg/ml) also diluted in water, or with the combination of the three compounds at the same concentrations as above. The cinchona used in this study is harvested in Ecuador, in the forests of Echeandia. The extract of Leontopodium alpinum tested in this study comes from a variety called Leontopodium alpinum Helvetia. The extract tested corresponds to the commercial material Alpaflor® from the supplier DSM. The manganese salt of L-pyrrolidone carboxylic acid tested in this study corresponds to the commercial material Mangalidone® from the supplier Solabia. It is obtained by cyclisation of glutamic acid of plant origin. Its INCI name is manganese PCA and its CAS number is 29193-02-2. A positive control (Wnt3a protein at 10 nM) is also tested. Activation of the Wnt/β-catenin pathway is highlighted by the quantification of luminescence due to luciferase expression.
A statistical analysis is performed, an intergroup comparison is made by a repeated measures ANOVA followed by Dunnett's post-test on the raw data.

As for `O=C1CC[C@@H](C(=O)[O-])N1.O=C1CC[C@@H](C(=O)[O-])N1.[Mn+2]` [Mn-PCA (L), manganese salt of L-pyrrolidone carboxylic acid], the “Average RLU (luminescence due to luciferase expression)” value worked out at 735.2 RLU and the “activation of the Wnt-β-catenin pathway versus control” value is recorded as “+77±17%”.

B1: Wnt3a: positive control, Wnt3a protein at 10 nM (protein, UniProt P56704 19-352, looked up)
Protein Wnt-3a: SYPIWWSLAVGPQYSSLGSQPILCASIPGLVPKQLRFCRNYVEIMPSVAEGIKIGIQECQHQFRGRRWNCTTVHDSLAIFGPVLDKATRESAFVHAIASAGVAFAVTRSCAEGTAAICGCSSRHQGSPGKGWKWGGCSEDIEFGGMVSREFADARENRPDARSAMNRHNNEAGRQAIASHMHLKCKCHGLSGSCEVKTCWWSQPDFRAIGDFLKDKYDSASEMVVEKHRESRGWVETLRPRYTYFKVPTERDLVYYEASPNFCEPNPETGSFGTRDRTCNVSSHGIDGCDLLCCGRGHNARAERRREKCRCVFHWCCYVSCQECTRVYDVHTCK
As to B1, the “Average RLU (luminescence due to luciferase expression)” value was determined as 2366.9 RLU and the “activation of the Wnt-β-catenin pathway versus control” value is recorded as “+451±93%”.
